{"source": "patent US20050266509A1", "about": "“Interaction of NMDA receptor with protein tyrosine phosphatase” (AGY Therapeutics, Inc., priority 2003, published 2005)", "key": {"PTPMEG": {"target": "T1, PTPMEG (Homo sapiens, UniProt P29074)", "T1 construct": "Asp-Ser-6xHis (N); made in house; host or cells: E. coli BL21(DE3)", "T1 sequence (P29074 655-911 limits assumed)": "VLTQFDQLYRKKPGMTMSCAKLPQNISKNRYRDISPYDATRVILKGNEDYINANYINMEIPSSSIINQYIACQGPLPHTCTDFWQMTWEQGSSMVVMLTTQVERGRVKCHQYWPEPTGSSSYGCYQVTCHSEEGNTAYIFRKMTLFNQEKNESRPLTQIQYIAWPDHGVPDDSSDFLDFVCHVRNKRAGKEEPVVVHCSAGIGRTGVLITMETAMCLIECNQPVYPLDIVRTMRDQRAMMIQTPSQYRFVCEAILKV", "test": "TR-FRET phosphatase activity assay, PTPMEG", "format": "biochemical", "description": "Expression and Purification of PTPMEG The DNA sequence encoding the C-terminal 326 residues of PTPMEG (phosphatase domain) was subcloned into the pET-17b vector (Novagen) between the Ndel and Xhol restriction sites. An N-terminal tag consisting of Asp-Ser-6×His was incorporated at the beginning of the protein sequence. Protein expression was performed in BL21(DE3) cells at 37° C. with a 4 hour 0.5 mM IPTG induction. The cells were harvested by centrifugation and stored at −80° C. until needed for protein purification. Protein purification consisted of cell lysis by sonication, immobilized metal affinity chromatography (IMAC) on a Ni^2+-NTA column (Qiagen), followed by hydrophobic interaction chromatography (HIC) on a phenyl sepharose column (Amersham Pharmacia Biotech) and/or ion exchange chromatography (IEC) on a Q sepharose column (Amersham Pharmacia Biotech). The purified 38.3 kDa protein was buffer exchanged into 50 mM HEPES, pH 7.5 and stored at −80° C.\nPhosphatase Buffer: 50 mm HEPES, pH 8; 1 mM DDT; 2 mM EDTA; 0.01% Brij solution; 10 mM MgCl2. […]\nThe plates are then placed in the plate reader, an Analyst HT. […] Fluorescence resonance energy transfer (FRET) from Eu-Ab to APC will only occur when they are in close proximity. […]"}, "PTPB": {"target": "PTPB (Homo sapiens, UniProt P23467)", "sequence (P23467 1643-1997 limits assumed)": "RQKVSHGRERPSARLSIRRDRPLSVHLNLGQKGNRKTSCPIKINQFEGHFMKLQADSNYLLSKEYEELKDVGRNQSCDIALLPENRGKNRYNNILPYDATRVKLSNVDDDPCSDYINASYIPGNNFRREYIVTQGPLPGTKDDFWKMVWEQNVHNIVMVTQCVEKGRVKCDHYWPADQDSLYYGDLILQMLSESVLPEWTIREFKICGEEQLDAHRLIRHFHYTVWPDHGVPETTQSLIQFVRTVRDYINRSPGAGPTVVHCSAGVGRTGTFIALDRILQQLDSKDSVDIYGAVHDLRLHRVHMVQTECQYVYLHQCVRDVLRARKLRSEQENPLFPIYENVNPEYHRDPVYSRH", "test": "FRET phosphatase assay, PTPB", "format": "biochemical", "description": "For the enzyme activity assay, 2.5 μl of compound, 12.5 μl of enzyme, and 10 μl of substrate (separated by air gaps) are added to columns 3 through 24 by the Biomek FX in a single dispense. After the dispense, the tips are washed with DMSO and water for re-use between each quadrant. Once the assay plates are set up, they are incubated at 27° C. for 45 minutes. Then 20 μl of detection buffer is added to stop the reaction and to allow the Europium antibody (Eu-Ab) and streptavidin-APC to bind to the substrate.\nThe plates are then placed in the plate reader, an Analyst HT. Excitation light at 360 nm is used to excite the Europium antibody with an emission at 620 nm. Fluorescence resonance energy transfer (FRET) from Eu-Ab to APC will only occur when they are in close proximity. Therefore, when an APC emission is observed at 665 nm the enzyme has been inhibited from removing the phosphate group from the substrate. The FRET assay is time-resolved (TR), where there is a delay between excitation light and collection of emission signals. This reduces the amount of stray light created by short-lived fluorescing molecules. The Analyst HT measures APC and Europium emission signals and calculates the ratio between the two intensities. Typical intensities for the Europium is ˜2000 and APC is ˜600.\nThe following compounds were tested by FRET against the listed phosphatases, and the IC50 were obtained. […]"}}, "data": [{"molecule": "CCOC(=O)C(=CC1=C/C(=C/N(C)C)C(=O)O1)C(=O)OCC", "note": "[AGY- 0046293]", "values": [{"measurement": "IC50", "setting": "PTPMEG", "value": 0.32, "unit": "µM"}, {"measurement": "IC50", "setting": "PTPB", "value": 23.2, "unit": "µM"}]}]}
